# According to patent EP0476658B1, “1-Phenyl-3-phenyl-2-propyne-1-ones” (MERRELL DOW PHARMACEUTICALS INC., priority 1990, dated 1992):
# How the values were obtained:
# [1] = tested on: Mustard Oil-Induced Mouse Ear Edema; assay: Mustard oil-induced mouse ear edema; type: in vivo; settings: 30 minutes prior to mustard oil, ear weight 30 minutes after, male CD-1 mice
# Method: Charles River male CD-1 mice weighing 30-60 grams were divided into randomized groups. They were dosed i.p. for 30 minutes prior or orally 1 hour prior to application of 20 ul of mustard oil (10% isothiocyanate in acetone) to the right ear. After 30 minutes the mice were sacrificed and an 8 millimeter diameter circular punch biopsy of each ear was obtained and weighed. The difference between the left (control) and right (treated) ear weights were expressed as percent increase.
# [2] = tested on: Carrageenin-Induced Rat Paw Edema; assay: Carrageenin-induced rat paw edema; type: in vivo; settings: 75 mg/Kg i.p. one hour prior to carrageenin; paw volume three hours after; male Sprague Dawley rats
# Method: Charles River male Sprague Dawley rats weighing 90 to 100 grams were used. Inflammation of the left hind paw was induced by a 1% carrageenin solution (0.05 cc), injected into the plantar surface of the paw. The contralateral paw was injected with an equal volume of saline. Drugs were administered 75 mg/Kg i.p. (1 cc/100 grams) one hour prior to paw injection. Three hours following the carrageenin injection the difference in volume of the control and inflamed paw was measured. Each paw was immersed in a well of mercury and the volume of mercury displaced was recorded. Paws were uniformly dipped into the mercury up to the beginning of the hairline. A venous pressure transducer, coupled to an chart recorder, was employed to measure the small volumes of mercury displaced. Each group measurement consists of the average of four rats, each with three separate measurements.
# Rat PMNL [3] = assay: Measurement of intracellular calcium (Fura-2) in fMLP-stimulated PMNL; type: cell-based; settings: preincubation of PMNL with compound 15 minutes at 37°C, fMLP stimulus; second wave = influx of extracellular calcium
# Method: (§1) Rat PMNL were obtained from exudates resulting from peritoneal injection of 6 mL of 8% sodium caseinate. Eighteen hours after injection rats were killed by carbon dioxide inhalation and the peritoneal cavity lavaged with Hank's balanced salt solution (HBSS). After concentration of the PMNL by centrifugation, contaminating erythrocytes were removed by hypotonic lysis. The PMNL were then washed twice by centrifugation (400 x g for 10 minutes) and resuspended in HBSS. Cell viability was greater than 90% by Trypan Blue exclusion and greater than 90% of the cells were PMNL by Wright-Giemsa stain.
# Intracellular calcium levels were obtained using Fura-2 as fluorescent indicator (Grynkiewicz et al., 1985). Fura-2 was loaded into PMNL as the acetoxymethyl ester (Fura-2/AM) using the method of Korchak et al., (1988). Specifically, 1 X 10⁸ PMNL/mL were incubated in HBSS with 10 µM Fura-2/AM for 10 minutes at 37°C. The cells suspension was then diluted ten fold with HBSS and further incubated for another 20 minutes. The cells were then centrifuged (400 x g for 8 minutes at 25°C) and the PMNL (1 x 10⁷ cells/mL) resuspended in HBSS containing 1% bovine serum albumin. Cells were stored at room temperature and used within 3 hours.
# Intracellular calcium level determinations were made using a dual wavelength spectrofluorometer (Photon Technology International, New Brunswick, NJ). […]
# Rat PMNL [4] = assay: Superoxide anion (SOA) production by stimulated PMNL; type: cell-based
# Method: as §1
# Aliquots (50 µl) of a rat PMNL suspension (2 x 10⁷ cells/mL in HBSS) were incubated with 50 µl of HBSS containing vehicle (0.3% DMSO) or compound for 30 minutes at 37°C as above. One hundred microliters of buffer containing 5.98 mg/mL of cytochrome C (Sigma Type III) and 0.1 mg/mL catalase, plus the compounds where appropriate, were then added to each sample. A blank for spectrophotometric measurement, containing unstimulated cells in the presence of cytochrome C, catalase and SOD, was also prepared. […] Aliquots (200 µl) of supernatant were then transferred to a second, flat-well microtiter plate and measured spectrophotometrically at 550 nm. […]
# Rat PMNL [5] = assay: Myeloperoxidase (MPO) release from stimulated PMNL; type: cell-based; settings: fMLP (with cytochalasin B), opsonized zymosan or ionomycin stimulation
# Method: as §1
# MPO release was determined using the MPO catalyzed oxidation of O-dianisidine. The experiments were carried out in 96-well microtiter plates (Webster and Henson, 1978). In each well, 50 microliter (µl) aliquots of a PMNL suspension (2 x 10⁷ cells/mL in HBSS) were incubated with 50 µl of HBSS containing vehicle (0.3% DMSO) or inhibitor for 30 minutes at 37°C. The final DMSO concentration never exceeded 0.3% and was constant throughout each experiment. […] The stimuli were added in 50 µl HBSS which also contained the compounds or vehicle, as appropriate, to avoid changing the inhibitor concentration. Cell activation was terminated by centrifugation of the plates at 600 x g for 5 minutes at 22°C. […] Absorbances of the samples were measured at 450 nm. […]
compound,measurement,setting,value
"COc1ccc(COc2cccc(C#CC(=O)c3ccccc3)c2)cc1 [MDL 100,225, 1-phenyl-3-[3-(4-methoxybenzyloxy)phenyl]-2-propyne-1-one]",%Inhibition,[1]; 10 mg/Kg i.p.,25.3 ± 17.8%
same,%Inhibition,[1]; 30 mg/Kg i.p.,33.4 ± 14.6%
same,%Inhibition,[1]; 100 mg/Kg i.p.,60.9 ± 11.7%
same,%Inhibition,[2],24.3% ± 10.3%
"O=C(C#Cc1ccc(OCc2ccccc2)cc1)c1ccccc1 [MDL 101,097, 1-phenyl-3-[(4-benzyloxy)phenyl]-2-propyne-1-one]",effect on fMLP-induced intracellular calcium changes,Rat PMNL [3],selective concentration-dependent suppression of the second wave of intracellular calcium changes
"O=C(C#Cc1ccncc1)c1ccccc1 [MDL 101,098, 1-phenyl-3-(4-pyridinyl)-2-propyne-1-one]",inhibition of superoxide anion production,Rat PMNL [4]; PMA and OZ stimulation,inhibited in a dose dependent fashion
same,inhibition at 1 µM,"Rat PMNL [4]; Rattus norvegicus, PMNL, inhibition of superoxide anion production, PMA, CONC 1 uM",-20.7%
"CN(C)c1ccc(C(=O)C#Cc2ccncc2)cc1 [MDL 102,175, 1-(4-dimethylaminophenyl)-3-(4-pyridinyl)-2-propynel-1-one]",inhibition of release of myeloperoxidase,Rat PMNL [5],dose dependent inhibition
